Converted amounts (≈) assume the structure as drawn. “And” between values parts separate entries of the source, which are not always exact repeats. Identical values can stand only once. Like-named read-outs stand apart in the source and are kept apart here.
What was measured:
[1] = system: pneumococci; assay: microbe, parasite or virus in culture; type: cell-based, S. pneumoniae
[2] = system: intraphagocytic L. pneumophila ATCC 33153 (THP-1); type: cell-based; details: intracellular L. pneumophila ATCC 33153
[3] = system: S. pyogenes; type: cell-based
[4] = system: S. aureus; assay: mouse systemic infection model (PD50); type: in vivo
[5] = system: S. pyogenes; assay: MIC of the strains of the mouse systemic infection model; type: cell-based; details: Streptococcus pyogenes
[6] = system: M. genitalium; type: cell-based; details: M. genitalium (5 isolates)
[7] = system: S. pyogenes; assay: microbe, parasite or virus in culture; type: cell-based; details: for MIC: Streptococcus pyogenes
[8] = system: M. fermentans; type: cell-based; details: M. fermentans (15 isolates)
[9] = Streptococcus pneumoniae, pneumococci, L4 mutations (27)

In the case of `CC[C@H]1OC(=O)[C@H](C)C(=O)[C@H](C)[C@@H](O[C@@H]2O[C@H](C)C[C@H](N(C)C)[C@H]2O)[C@](C)(OC)C[C@@H](C)C(=O)[C@H](C)[C@H]2N(CCCCn3cnc(-c4cccnc4)c3)C(=O)O[C@]12C` [TEL, telithromycin], the “MIC Range” value [1] is reported as 0.03 to 2 µg/mL, the MIC range [1] is reported as 0.015 to 1 µg/mL and 0.03 to 2 µg/mL and 0.03 to 0.5 µg/mL and 0.03 to 0.06 µg/mL and the MIC50 [1, 9] is reported as 0.125 µg/mL (≈ 0.154 µM). For the same molecule, the MIC90 [1, 9] was 0.25 µg/mL (≈ 0.308 µM), the MIC ([1]; Streptococcus pneumoniae, read-out: MIC range) was 0.015 to 0.03 µg/mL (≈ 0.0185 to 0.0369 µM) and the MIC ([1]; Streptococcus pneumoniae, read-out: MIC range, pneumococci, L4 mutations (27)) was 0.06 to 0.25 µg/mL (≈ 0.0739 to 0.308 µM). For the same molecule, the “Cs, static concentration” value [2] was 0.06 mg/L, the Mutant selection frequencies ([3]; S. pyogenes, at 2×MIC) was <8.3×10^−11-7.7×10^−8 and the “single step mutation frequency” value ([3]; strain 237 Macrolide-R [L4 mutation], 2 × MIC) was <2.0 × 10^−10. The “single step mutation frequency” value ([3]; strain 237 Macrolide-R [L4 mutation], 4 × MIC) was <2.0 × 10^−10, the “single step mutation frequency” value ([3]; strain 237 Macrolide-R [L4 mutation], 8 × MIC) was <2.0 × 10^−10 and the “single step mutation frequency” value ([3]; strain 2011 Macrolide-R [mef(A)], 2 × MIC) was 3.8 × 10^−8. For the same molecule, the “single step mutation frequency” value ([3]; strain 2011 Macrolide-R [mef(A)], 4 × MIC) was <6.3 × 10^−10, the “single step mutation frequency” value ([3]; strain 2011 Macrolide-R [mef(A)], 8 × MIC) was <6.3 × 10^−10 and the “single step mutation frequency” value ([3]; strain 2094 Macrolide-R [erm(A)], 2 × MIC) was 7.7 × 10^−8. For the same molecule, the “single step mutation frequency” value ([3]; strain 2094 Macrolide-R [erm(A)], 4 × MIC) was <1.5 × 10^−10, the “single step mutation frequency” value ([3]; strain 2094 Macrolide-R [erm(A)], 8 × MIC) was <1.5 × 10^−10 and the “single step mutation frequency” value ([3]; strain 2132 Macrolide-S, 2 × MIC) was <8.3 × 10^−11. For the same molecule, the “single step mutation frequency” value ([3]; strain 2132 Macrolide-S, 4 × MIC) was <8.3 × 10^−11, the “single step mutation frequency” value ([3]; strain 2132 Macrolide-S, 8 × MIC) was <8.3 × 10^−11 and the PD50 ([4]; MRSA 300 (CA)) was 9.2 mg/kg. For the same molecule, the PD50 ([4]; S. aureus, single oral dose 1 hr post infection) was over 30 mg/kg, the MIC ([5]; S. pyogenes (erythromycin R)) was 1 µg/mL and the MIC ([5]; S. pyogenes (macrolide susceptible)) was 0.015 µg/mL. The “MIC Range” value [6] was “≦0.00003-0.00025 μg/mL”, the “strains with resistant clones / strains tested” value ([7]; S. pyogenes) was 2/4 and 2/5 and the MIC ([7]; read-out: Initial MIC, strain 237 Macrolide-R [LA mutation], parent) was 0.06 µg/mL (≈ 0.0739 µM). It also gave an MIC ([7]; read-out: Initial MIC, strain 2011 Macrolide-R [mef(A)], parent) of 0.5 µg/mL (≈ 0.616 µM), an MIC ([7]; read-out: Initial MIC, strain 2094 Macrolide-R [erm(A)], parent) of 0.03 µg/mL (≈ 0.0369 µM) and an MIC ([7]; read-out: Initial MIC, strain 2132 Macrolide-S, parent) of 0.008 µg/mL (≈ 0.00985 µM). For the same molecule, the MIC ([7]; read-out: MIC of parents of resistant clones, S. pyogenes) was 0.03 to 8 µg/mL, the MIC ([7]; read-out: Parental MICs, S. pyogenes, 5 strains with varying resistotypes) was 0.03 to 8 µg/mL (≈ 0.0369 to 9.85 µM) and the MIC ([7]; read-out: Selected Resistance (MIC), strain 237 Macrolide-R [LA mutation], after serial passages in the drug) was 0.125 µg/mL (≈ 0.154 µM). For the same molecule, the MIC ([7]; read-out: Selected Resistance (MIC), strain 2011 Macrolide-R [mef(A)], after serial passages in the drug) was 1 µg/mL (≈ 1.23 µM), the MIC ([7]; read-out: Selected Resistance (MIC), strain 2094 Macrolide-R [erm(A)], after serial passages in the drug) was 0.25 µg/mL (≈ 0.308 µM) and the MIC ([7]; read-out: Selected Resistance (MIC), strain 2132 Macrolide-S, after serial passages in the drug) was 0.03 µg/mL (≈ 0.0369 µM). The MIC ([7]; read-out: Selected Resistance (MIC), strain 2368 Macrolide-R [erm(B)], after serial passages in the drug) was over 64 µg/mL, the “days until resistant clones (MIC increase)” value ([7]; daily passages, max. 50) was 6 to 22 days and the “Retest MIC after 10 Antibioticfree Subcultures” value ([7]; strain 237 Macrolide-R [LA mutation], clone selected with CEM-101) was 1 µg/mL. The “Retest MIC after 10 Antibioticfree Subcultures” value ([7]; strain 237 Macrolide-R [LA mutation], clone selected with CLN) was 0.06 µg/mL, the “Retest MIC after 10 Antibioticfree Subcultures” value ([7]; strain 2011 Macrolide-R [mef(A)], clone selected with AZI) was 0.25 µg/mL and the “Retest MIC after 10 Antibioticfree Subcultures” value ([7]; strain 2094 Macrolide-R [erm(A)], clone selected with AZI) was 0.03 µg/mL. For the same molecule, the “Retest MIC after 10 Antibioticfree Subcultures” value ([7]; strain 2094 Macrolide-R [erm(A)], clone selected with CEM-101) was 0.5 µg/mL, the “Retest MIC after 10 Antibioticfree Subcultures” value ([7]; strain 2094 Macrolide-R [erm(A)], clone selected with CLN) was 0.03 µg/mL and the “Retest MIC after 10 Antibioticfree Subcultures” value ([7]; strain 2094 Macrolide-R [erm(A)], clone selected with CLR) was 0.03 µg/mL. For the same molecule, the “Retest MIC after 10 Antibioticfree Subcultures” value ([7]; strain 2094 Macrolide-R [erm(A)], clone selected with TEL) was 0.125 µg/mL, the “Retest MIC after 10 Antibioticfree Subcultures” value ([7]; strain 2132 Macrolide-S, clone selected with AZI) was 0.03 µg/mL and the “Retest MIC after 10 Antibioticfree Subcultures” value ([7]; strain 2368 Macrolide-R [erm(B)], clone selected with CEM-101) was over 64 µg/mL. For the same molecule, the “Retest MIC after 10 Antibioticfree Subcultures” value ([7]; strain 2368 Macrolide-R [erm(B)], clone selected with TEL) was over 64 µg/mL, the “MIC Range” value [8] was 0.002 to 0.031 µg/mL and the MIC50 ([8]; Mycoplasmopsis fermentans) was at most 0.008 µg/mL. It also gave an MIC90 ([8]; Mycoplasmopsis fermentans) of 0.016 µg/mL (≈ 0.0197 µM).

From patent publication US9901592B2 (priority 2008, dated 2018)
